# Laboratory results as given in publication PMC7848024, “Synthetic Cationic Autoantigen Mimics Glatiramer Acetate Persistence at the Site of Injection and Is Efficacious Against Experimental Autoimmune Encephalomyelitis” (Frontiers in Immunology, 2021).
# “Also recorded” adds a separate entry of the source.
# Key:
# [1] = Subcutaneous injection simulation (Scissor): aggregation and release; format: physicochemical; settings: for formation of visible aggregates in HA: 1 ml of 20 mg/ml injected into 10 mg/ml HA (1.5–1.8 MDa), Scissor cartridge, visual observation
# Protocol: The subcutaneous injection simulation was performed using the method previously described ([15]). 1 ml of 20 mg/ml K-PLP in 40 mg/ml mannitol solution was injected into Scissor cartridge containing 10 mg/ml 1.5–1.8 MDa hyaluronic acid (HA). Time points were collected over 3 days and concentration of K-PLP released into the chamber buffer was determined using a bicinchoninic acid assay (Micro BCA protein assay kit, Thermo Scientific, Waltham, MA) by constructing a calibration curve with K-PLP concentrations of 2, 5, 10, 20, 30, and 40 µg/ml. The concentration values were adjusted to account for K-PLP that was taken out during sampling and then converted to percentage of K-PLP released before plotted as a function of time.
# [2] = tested on: EAE induced using PLP 139-151; experiment: In vivo efficacy study, EAE animal model; set-up: species or system SJL/J (H-2) mice
# Protocol: In vivo efficacy of K-PLP was assessed using the EAE animal model induced in female 4-6-week old SJL/J (H-2) mice (20–25 g, Envigo, Indianapolis, IN). All protocols were approved through the University’s Institutional Animal Care and Use Committee, and all animals were housed in pathogen-free conditions. EAE induction and treatment schedule were based on methods previously described ([18]–[20]). […]. Additionally, on day 0 each mouse received a 100 μl intraperitoneal injection of pertussis toxin at 100 ng/ml. This administration of pertussis toxin was repeated on day 2. Beginning on day 7, disease severity was monitored daily through the use of a symptom scoring system as follows: 0, no clinical disease symptoms; 1, weakness or limpness of the tail; 2, weakness or partial paralysis of one or two hind limbs (paraparesis); 3, full paralysis of both hind limbs (paraplegia); 4, paraplegia plus weakness or paralysis of forelimbs; 5, moribund (euthanasia necessary). Mouse weight was also recorded daily throughout the study. In vivo treatment groups consisted of 6 mice per group. Treatments were administered in 100 μl SC injections formulated in 40 mg/ml mannitol. Injections were administered between the shoulder blades. Copaxone and K-PLP were administered at 4.5 mg/ml while 9-unit poly-lysine was administered at the molar equivalent to K-PLP injections, resulting in a concentration of 1.7 mg/ml. Treatment injections were performed on days 4, 7, and 10 following EAE induction. Mouse weights were recorded daily beginning on day 0 and clinical scores were recorded daily beginning on day 7. Statistical analysis was performed using two-way analysis of variance (ANOVA) on the clinical scores and weights, one-way ANOVA on the cumulative clinical scores, followed by Turkey comparison tests for all. Statistical significance for all analyses was set at p<0.05. All statistical analyses were performed using GraphPad Software (GraphPad Software Inc.).
# [3] = cited from earlier work; for formation of visible aggregates in the presence of HA (literature): in the presence of glycosaminoglycans such as HA
# Excerpt: GA consists of a broad population of peptides (average MW 5–9 kDa) comprising four amino acids (AKEY). Lysine is the predominant amino acid at ~34% of the molar mass, which imbues a strong cationic character (pI ~10). […] Approximately 30% of GA remained aggregated after 3 days according to in vitro subcutaneous (SC) injection simulation experiments. […] GEMSP consists of a mixture of fatty acid linked poly-lysine (PLL), antioxidants-PLL, free radical scavengers-PLL, and amino acids-PLL.
# [4] = tested on: footpads of mice; experiment: In vivo migration imaging: retention at the footpad injection site; settings: 10 μl into the footpad, cy7-labeled mixed with unlabeled compound, 20 mg/ml (PLP molar equivalent), dye 25 μM; 1-4 h; near-IR imaging; one mouse per compound
# Protocol: Herein, the labeled compounds will be referred to as cy7-GA, cy7-K-PLP, cy7-PEG and cy7-PLP.
# Similar imaging method as previously described was used ([15]). Three female SJL/J mice (20-25 g, Envigo, Indianapolis, IN) were used for imaging, one each for K-PLP, PLP, and GA. Unlabeled K-PLP and unlabeled GA were mixed with cy7-K-PLP and cy7-GA, respectively, to a final concentration of 20 mg/ml with the amount of dye normalized to the equivalent of 25 μM of free cyanine 7 dye. Similarly, unlabeled PLP was mixed with cy7-PLP to a concentration that is molar equivalent to 20 mg/ml of K-PLP with the amount of dye normalized to the equivalent of 25 μM of free cyanine 7 dye. Each mouse was injected with 10 μl of their respective treatment at the center of the footpad every hour for 4 h in the following order: left forelimb at the 1-h time point, right forelimb at the 2-h time point, left hindlimb at the 3-h time point, and right hindlimb at the 4-h time point for K-PLP; right forelimb at the 1-h time point, left forelimb at the 2-h time point, right hindlimb at the 3-h time point, and left hindlimb at the 4-h time point for both GA and PLP. […]
# [5] = Dynamic light scattering particle sizing; format: physicochemical
# Protocol: Raman and dynamic light scattering were performed with a Malvern Helix (Malvern Instruments, Malvern, UK). 20 μl of K-PLP at a concentration of 10 mg/ml in 150 mM citrate-phosphate buffer at pH 6 was loaded into a custom steel cuvette with quartz windows. Raman scattering from a 785 nm laser was collected in a backscattering geometry. Samples were measured in triplicate, each replicate consisted of 10 acquisitions of 10 second exposure each. The Zetasizer Helix Analyze software (Malvern Instruments) was used to buffer subtract, normalize to the phenylalanine peak (1003 cm-1), then baseline spectra for analysis. Dynamic light scattering autocorrelation functions were measured with a 632 nm laser with light collected in a 173° angle backscattering geometry. Autocorrelation functions were fit using the method of cumulants.
Substance,formation of visible aggregates in HA [1],"disease progression compared to the control (mannitol) ([2]; 100 μl SC, days 4, 7 and 10, Copaxone 4.5 mg/ml, 9-unit poly-lysine 1.7 mg/ml, 6 mice per group)",formation of visible aggregates in the presence of HA (literature) [3],"remained aggregated after 3 days ([3]; in vitro subcutaneous injection simulation, 3 days)",fluorescence intensity at the footpads over 4 h [4],"mean size (DLS) ([5]; 10 mg/ml in 150 mM citrate-phosphate buffer pH 6, 632 nm laser, 173° backscattering, method of cumulants, triplicate)","polydispersity (DLS) ([5]; 10 mg/ml in 150 mM citrate-phosphate buffer pH 6, over the temperature ramp)","release rate compared to GA ([1]; Scissor release profile over 3 days, GA profile from ref 15)","remained in the cartridge at the end of the three-day experiment ([1]; Scissor, 20 mg/ml into 10 mg/ml HA, end of 3 days)","plateau of release into the chamber after 2 days ([1]; Scissor, 1 ml of 20 mg/ml in 40 mg/ml mannitol into 10 mg/ml HA, after 2 days, Micro BCA assay)","K-PLP released into the chamber over the first 3 h ([1]; Scissor, 1 ml of 20 mg/ml in 40 mg/ml mannitol into 10 mg/ml HA, first 3 h, Micro BCA assay)","clinical score ([2]; 100 μl SC in 40 mg/ml mannitol, 4.5 mg/ml, days 4, 7 and 10, scores to day 25, 6 mice per group)","percentage of disease-free mice ([2]; 100 μl SC, days 4, 7 and 10, 6 mice per group)","weight decrease ([2]; 100 μl SC, days 4, 7 and 10, % weight change normalized to day 7, 6 mice per group)","weight loss from day 13 to day 17 (peak disease) ([2]; compared to 9-unit poly-lysine (p<0.0001) and PLP (p<0.01), two-way ANOVA)","cumulative clinical scores, day 0 to day 25 ([2]; one-way ANOVA, 6 mice per group)"
"glatiramer acetate [GA, reference compound]",Formation of aggregates was observed immediately,any deviations from the control were not statistically significant; also recorded: did not significantly improve the clinical outcomes,"forms large, visible aggregates",Approximately 30%,did not significantly decrease over the course of the experiment,,,,,,,,,,,
poly-lysine,,,able to form visible aggregates,,,,,,,,,,,,,
NH2-KKKKKKKKKKK-PEG-PEG-PEG-PEG-HSLGKWLGHPDKF-OH [K-PLP],visible aggregates were formed immediately,,,,,around 2 nm,less than 0.3,released at a similar rate as GA,approximately 20%,around 80%,approximately 20%,lowest clinical score,highest percentage of disease-free mice,least weight decrease,no significant weight loss,"significant improvement over 9-unit poly-lysine, but not PLP"
